Data set [1] deals with T1, human recombinant PDE V (Homo sapiens, UniProt O76074).
T1 construct: purchased ICOS, Seattle USA
Nature of the data set: Inhibitory effect on cGMP-PDE (one-step assay adapted from Wells et al.). It is filed as biochemical. The conditions noted are these: 0.15 μM 8-[H3]-cGMP, 30 minutes incubation, 2% DMSO. The method, then: The enzyme used was a human recombinant PDE V (ICOS, Seattle USA).
Compounds of the invention were dissolved in DMSO finally present at 2% in the assay.

The test system of data set [2] is Rat aortic smooth muscle cells (RSMC). As to the kind of experiment: cGMP level measurements in ANF-stimulated cells. As to conditions: 30 minutes at 37° C. with compound, then ANF (100 nM) for 10 minutes, c-GMP by scintillation proximity immunoassay. Type of data set: cell-based. How it is done:
Rat aortic smooth muscle cells (RSMC) prepared according to Chamley et al. in Cell Tissue Res. 177 503-522 (1977) were used between the 10th and 25th passage at confluence in 24-well culture dishes. Culture media was aspirated and replaced with PBS (0.5 ml) containing the compound tested at the appropriate concentration. After 30 minutes at 37° C., particulates guanylate cyclase was stimulated by addition of ANF (100 nM) for 10 minutes. At the end of incubation, the medium was withdrawn and two extractions were performed by addition of 65% ethanol (0.25 ml). The two ethanolic extracts were pooled and evaporated until dryness, using a Speed-vac system. c-GMP was measured after acetylation by scintillation proximity immunoassay ([…]).

The test system of data set [3] is conscious spontaneously hypertensive rats (SHR). As to the kind of experiment: Antihypertensive activity in rats. It is filed as in vivo, rat. As to conditions: orally 5 mg/kg in 5% DMF and 95% olive oil, carotid artery catheter, recorded for 5 hours. The method, then:
The hypotensive effects of compounds according to the invention as identified in table 2 were studied in conscious spontaneously hypertensive rats (SHR). The compounds were administered orally at a dose of 5 mg/kg in a mixture of 5% DMF and 95% olive oil. Blood pressure was measured from a catheter inserted in the carotid artery and recorded for 5 hours after administration. The results are expressed as Area Under the Curve (AUC from 0 to 5 hours, mmHg.hour) of the fall blood pressure over time.

On to `CN1CC(=O)N2[C@@H](c3ccc4c(c3)CCO4)c3[nH]c4ccccc4c3C[C@@H]2C1=O` (relative stereo) [Example 36, Cis-2,3,6,7,12,12a-Hexahydro-6-(2,3-dihydrobenzo[b]furan-5-yl)-2-methyl-pyrazino[2′,1′:6,1]pyrido[3,4-b]indole-1,4-dione], for which the melting point (commonly the temperature of the solid-liquid transition) was 292 to 294 °C. In addition, in data set [1], the IC50 (in general, the concentration needed to halve the response being measured) is less than 10 nM. Moreover, the concentration giving a half-maximal response (EC50) (as a rule, the concentration that produces a half-maximal response) in data set [2] was determined as 500 nM. The “AUC PO (fall in blood pressure over time, AUC from 0 to 5 hours)” value in data set [3] turned out to be 99 mmHg.h.

`CCCCN1CC(=O)N2C(Cc3c([nH]c4ccccc34)C2c2ccc(C)cc2)C1=O` (stereo not drawn) [Example 63, Cis-2 3,6,7,12,12a-Hexahydro-2-butyl-6-(4-methylphenyl)-pyrazino[2′,1′:6,1]pyrido[3,4-b]indole-1,4-dione]: the melting point was found to be 194 °C. Besides, the 50% inhibitory concentration (IC50) in data set [1] stood at 30 nM. The EC50 in data set [2] came out at 350 nM. The “AUC PO (fall in blood pressure over time, AUC from 0 to 5 hours)” value in data set [3] is on record as 95 mmHg.h.

With `O=C1[C@H]2Cc3c([nH]c4ccccc34)[C@@H](c3ccc4c(c3)OCO4)N2C(=O)[C@@H]2CCCN12` [Example 115, (5aR, 12R,14aS)-1,2,3,5,6,11,12,14a-Octahydro-12-(3,4-methylenedioxyphenyl)-pyrrolo[1″,2″:4′,5′]pyrazino[2′,1′:6,1]pyrido[3,4-b]indole-5-1,4-dione], the melting point was 302 to 304 °C. Also, the IC50 in data set [1] was less than 10 nM. In addition, the EC50 in data set [2] was 400 nM.

`CC(C)N1CC(=O)N2[C@H](c3ccc4c(c3)OCO4)c3[nH]c4ccccc4c3C[C@@H]2C1=O` [Example 79, (6R,12aR)-2,3,6,7,12,12a-Hexahydro-2-isopropyl-6-(3,4-methylenedioxyphenyl)-pyrazino[2′,1′:6,1]pyrido[3,4-b]indole-1,4-dione] had a melting point of 290 to 293 °C. In addition, in data set [1], the IC50 was less than 10 nM. Further, the EC50 in data set [2] turned out to be 150 nM. In addition, in data set [3], the “AUC PO (fall in blood pressure over time, AUC from 0 to 5 hours)” value stood at 171 mmHg.h.

`O=C1NCC(=O)N2[C@H](c3ccc4c(c3)OCO4)c3[nH]c4ccccc4c3C[C@H]12` [Example 101, (6R,12aR)-2,3,6,7,12,12a-Hexahydro-4-(3,4-methylenedioxyphenyl)-pyrazino[2′,1′:6,1]pyrido [3,4-b]indole-1,4-dione]: the melting point lay within 285 to 290 °C. For the same compound, the IC50 in data set [1] came out at 10 nM. Also, in data set [2], the EC50 is 300 nM. Also, the “AUC PO (fall in blood pressure over time, AUC from 0 to 5 hours)” value in data set [3] was determined as 136 mmHg.h.

`O=C1[C@H]2Cc3c([nH]c4ccccc34)[C@@H](c3ccc4c(c3)OCO4)N2C(=O)CN1C1CCCC1` [Example 82, (6R,12aR)-2,3,6,7,12,12a-Hexahydro-2-cyclopentyl-6-(3,4-methylenedioxyphenyl)-pyrazino[2′,1′:6,1pyrido3,4-b]indole-1,4-dione] showed a melting point of 237 to 239 °C. In addition, the 50% inhibitory concentration (IC50) in data set [1] amounted to 20 nM. The concentration for a half-maximal effect (EC50) in data set [2] was 500 nM. Besides, in data set [3], the “AUC PO (fall in blood pressure over time, AUC from 0 to 5 hours)” value is recorded as 111 mmHg.h.

Regarding `COc1ccc([C@@H]2c3[nH]c4ccccc4c3C[C@@H]3C(=O)N(CC4CC4)CC(=O)N23)cc1` [Example 84, (6R,12aR)-2,3,6,7,12,12a-Hexahydro-2-cyclopropylmethyl-6-(4-methoxyphenyl)-pyrazino[2′,1′:6.1]pyrido[3,4-b]indole-1,4-dione], the melting point was in the range of 204 to 205 °C. In addition, in data set [1], the IC50 was 10 nM. Moreover, the EC50 in data set [2] is 400 nM. For the same compound, the “AUC PO (fall in blood pressure over time, AUC from 0 to 5 hours)” value in data set [3] stood at 77 mmHg.h.

The compound `CN1CC(=O)N2C(Cc3c([nH]c4ccccc34)C2c2ccc(Br)s2)C1=O` (stereo not drawn) [Example 52, Cis-2,3,6,7,12,12a-Hexahydro-65-bromo-2-thienyl)-2-methyl-pyrazino[2′,1′:6,1]pyrido[3,4-b]indole-1,4-dione] gave a melting point of 258 °C. Also, the IC50 in data set [1] is 20 nM. For the same compound, the EC50 in data set [2] was determined as 800 nM.

On to `CN1CC(=O)N2[C@H](c3ccc4c(c3)OCO4)c3[nH]c4ccccc4c3C[C@@H]2C1=O` [Example 95, (6R,12aR)-2,3,6,7,12,12a-Hexahydro-2-methyl-6-(3,4-methylenedioxyphenyl)-pyrazino[2′,1′:6,1]pyrido[3,4-b]indole-1,4-dione], for which the EC50 in data set [2] came out at 200 nM. The “AUC PO (fall in blood pressure over time, AUC from 0 to 5 hours)” value in data set [3] is recorded as 135 mmHg.h.

With `COc1ccc([C@@H]2c3[nH]c4ccccc4c3C[C@@H]3C(=O)N(C)CC(=O)N23)cc1Cl` [Example 89], the melting point lay in the range of 283 to 284 °C. The IC50 in data set [1] is 10 nM. In addition, in data set [2], the EC50 was less than 100 nM. In addition, in data set [3], the “AUC PO (fall in blood pressure over time, AUC from 0 to 5 hours)” value amounted to 117 mmHg.h.

(Values after patent publication US6369059B1, “Tetracyclic derivatives, process of preparation and use” (ICOS Corporation, priority 1994, dated 2002).)
